Consider 17 molecules from BindingDB's records for doi:10.1021/acs.jmedchem.6b00703 (Novartis Institutes of Biomedical Research (Nibr), 2016).

The assay is described as follows: Inhibition of PDGFR-beta driven proliferation of rat A10 cells after 68 hrs in presence of rat recombinant PDGF-BB by cell titer-glo luminescence assay. (ATP-based viability assays read luminescence as a measure of living cells.)
As usually defined, the IC50 is the point on the concentration scale where inhibition reaches its midpoint. Take `Cc1ccc(NC(=O)c2ccc(CN3CCN(C)CC3)cc2)cc1Nc1nccc(-c2cccnc2)n1`: the IC50 was determined as 0.162 µM. With `Cn1nccc1-c1ccn2c(C(=O)Nc3cc(C(=O)NCc4ccc(F)c(F)c4)ccc3F)cnc2c1` the figure was 0.003 µM; with `CN1CCN(c2ccccc2CNC(=O)c2ccc(F)c(NC(=O)c3cnc4cc(-c5cccnc5)ccn34)c2)CC1`, 0.0079 µM.

As to `C[C@@H]1CCC[C@H](C)N1CCNC(=O)c1ccc(F)c(NC(=O)c2cnc3cc(-c4ccnn4C)ccn23)c1`, the IC50 is 0.0087 µM. The same measure for `Cn1cc(-c2ccn3c(C(=O)Nc4cc(C(=O)NCCN5CCCC5(C)C)ccc4F)cnc3c2)cn1`: 0.0017 µM; for `CN1CCN(c2ccccc2CNC(=O)c2ccc(F)c(NC(=O)c3cnc4cc(-c5cnn(C)c5)ccn34)c2)CC1`: 0.0036 µM. Take `Cn1nccc1-c1ccn2c(C(=O)Nc3cc(C(=O)NCC4CCC(C)(C)O4)ccc3F)cnc2c1` (configuration not stated): the IC50 turned out to be 0.0027 µM. On to `CN(CCNC(=O)c1ccc(F)c(NC(=O)c2cnc3cc(-c4ccnn4C)ccn23)c1)C(C)(C)C`, for which the IC50 was 0.023 µM. The same measure for `CN1CCN(c2ccccc2CNC(=O)c2ccc(F)c(NC(=O)c3cnc4cc(-c5cc[nH]n5)ccn34)c2)CC1`: 0.019 µM.

On to `Cc1ncc(C(=O)NCCN2CCCC2(C)C)cc1NC(=O)c1cnn2cc(-c3cnn(C)c3)ccc12`, for which the IC50 came to 0.013 µM. With `Cc1ccc(C(=O)NCc2ccccc2)cc1NC(=O)c1cnn2ccccc12` the figure was 0.012 µM; with `Cc1ncc(C(=O)NCc2ccccc2N2CCN(C)CC2)cc1NC(=O)c1cnn2cc(-c3ccnn3C)ccc12`, 0.035 µM; with `CN1CCN(c2ccccc2CNC(=O)c2ccc(F)c(NC(=O)c3cnc4cc(-c5ccnn5C)ccn34)c2)CC1`, 0.0092 µM. With `CN1CCN(c2ccccc2CNC(=O)c2ccc(F)c(NC(=O)c3cnn4cc(-c5ccnn5C)ccc34)c2)CC1` the figure was 0.01 µM; with `Cn1nccc1-c1ccn2c(C(=O)Nc3cc(C(=O)NCCN4CCCC4(C)C)ccc3F)cnc2c1`, 0.0095 µM; with `CCN(CCNC(=O)c1ccc(F)c(NC(=O)c2cnc3cc(-c4ccnn4C)ccn23)c1)C(C)(C)C`, 0.022 µM. Regarding `CN1CCN(c2ccccc2CNC(=O)c2ccc(F)c(NC(=O)c3cnc4ccccn34)c2)CC1`, the IC50 was determined as 0.036 µM.
